US12629382B2, “Therapy” (Vestlandets Innovasjonsselskap AS, priority 2019, dated 2026)

Experiments:
Format in all cases: cell-based
[1] = test system: A172 glioma cells; experiment: Intracellular GSH, GSH-Glo assay, A172 cells; conditions: Homo sapiens, 48 h, normalized to untreated control; for activity at 250 µM: A 172, 250 μM compound, read-out: Intracellular GSH level A172 250 μM; for activity at 500 µM: A 172, 500 μM compound, read-out: Intracellular GSH level A172 500 μM
Experimental: (§1) The cancer cell lines A172, A375, U87 and MCF7 were purchased from American Type Culture Collection (ATCC; Manassas, Va., USA). Cells were cultured in Dulbecco's Modified Eagle's Medium (DMEM) supplemented with 10% fetal bovine serum, 2% v/v L-glutamine, 3.2% v/v non-essential amino acids, antibiotics 2% v/v (penicillin-streptomycin), and 0.02% v/v Plasmocin at 37° C. and 5% CO2.
(§2) xCT expression of cancer cell lines was evaluated by western blotting from protein samples of cell lysates as described in Sleire et al., Oncogene 34: 5951-5959, 2015. Protein concentrations were determined by BCA assay (Thermo Fisher Scientific, USA) followed by SDS PAGE and immunoblotting using rabbit anti-xCT (Thermo Fisher Scientific) and rabbit anti-GAPDH (Abcam, Cambridge, UK) as a loading control. The compounds were dissolved in dimethylsulfoxide (DMSO) (Sigma Aldrich, Germany) and stock concentrations of 100 mM were stored at −20° C. in aliquots. Final concentrations were made in growth medium before adding to the cell monolayers.
(§3) The compounds were evaluated based on the measurement of intracellular Glutathione (GSH) which was performed by the GSH-Glo assay (Promega, Madison, WI, USA, cat #V6912) according to the manufacturer's recommended procedures. 5000 cells per well were seeded in a flat bottomed 96-well plate. After attachment to the well surface, cells were exposed to 250 μM and 500 μM of each compound for 48 h. After that, GSH-Glo reagent was added followed by short incubation and addition of luciferin detection reagent. Bioluminescence was measured using a luminometer (Victor 3 1420 multi-label counter, Perkins Elmer, Waltham, MA, USA). IC50 doses for the compounds SAS, DC10 and DC14 were determined in A172 glioma cells, using the GraphPad Prism v6 software (GraphPad Software, Inc. CA, USA). All measurements were normalized to the untreated control and were performed three times.

[2] = test system: U87; experiment: Intracellular GSH, GSH-Glo assay, U87 cells; conditions: Homo sapiens, U-87 MG, 48 h, normalized to untreated control; for activity at 250 µM: 250 μM compound, read-out: Intracellular GSH level U87 250 μM; for activity at 500 µM: 500 μM compound, read-out: Intracellular GSH level U87 500 μM
Experimental: as §1, §2, §3

[3] = test system: A375; experiment: Intracellular GSH, GSH-Glo assay, A375 cells; conditions: Homo sapiens, 48 h, normalized to untreated control; for activity at 250 µM: A-375, 250 μM compound, read-out: Intracellular GSH level A375 250 μM; for activity at 500 µM: A-375, 500 μM compound, read-out: Intracellular GSH level A375 500 μM
Experimental: as §1, §2, §3

[4] = test system: MCF7; experiment: Intracellular GSH, GSH-Glo assay, MCF7 cells; conditions: Homo sapiens, 48 h, normalized to untreated control; for activity at 250 µM: 250 μM compound, read-out: Intracellular GSH level MCF7 250 μM; for activity at 500 µM: 500 μM compound, read-out: Intracellular GSH level MCF7 500 μM
Experimental: as §1, §2, §3

SMILES | activity at 250 µM [1] | activity at 500 µM [1] | activity at 250 µM [2] | activity at 500 µM [2] | activity at 250 µM [3] | activity at 500 µM [3] | activity at 250 µM [4] | activity at 500 µM [4]
O=C(O)c1cc(/C=C/c2ccc(S(=O)(=O)Nc3ccccc3)cc2)ccc1O [DC14, (E)-2-hydroxy-5-(4-(N-phenylsulfamoyl)styryl)benzoic acid] | 23.1% | 2.4% | 18% | 1.9% | 4.5% | 2% | 25.9% | 1.8%
COc1ccc(/C=C/c2ccccc2)cc1C(=O)O [DC01, (E)-2-methoxy-5-styrylbenzoic acid] | 84.6% | 76.2% | 76.6% | 79.6% | 60.5% | 43.1% | 93.8% | 66.5%
O=C(O)c1cc(/C=C/c2cccc(-c3ccccc3)c2)ccc1O [DC18, (E)-5-(2-([1,1′-biphenyl]-3-yl)vinyl)-2-hydroxybenzoic acid] | 74% | 3.7% | 66.5% | 4.6% | 53.7% | 3.4% | 54.6% | 4.8%
O=C(O)c1cc(/C=C/c2ccccc2)ccc1O [DC02, (E)-2-hydroxy-5-styrylbenzoic acid] | 90.9% | 41% | 82.2% | 66.9% | 50.4% | 32% | 47.4% | 15.9%
CC(=O)Nc1ccc(/C=C/c2ccccc2)cc1C(=O)O [DC16, (E)-2-acetamido-5-styrylbenzoic acid] | 67.3% | 51.7% | 73.5% | 63.2% | 34.5% | 26.4% | 92.4% | 83.7%
COc1ccc(/C=C\c2ccccc2)cc1C(=O)O [DC03, (Z)-2-methoxy-5-styrylbenzoic acid] | 77.5% | 68.2% | 87.9% | 88.4% | 68.6% | 47.6% | 94.9% | 49.4%
COc1ccc(-c2ccc3ccccc3c2)cc1C(=O)O [DC05, 2-methoxy-5-(naphthalen-2-yl)benzoic acid] | 75.6% | 57.7% | 42.9% | 39.5% | 47.6% | 37.9% | 82.4% | 39%
COc1ccc(C#Cc2ccccc2)cc1C(=O)O [DC04, 2-methoxy-5-(phenylethynyl)benzoic acid] | 86.9% | 77.6% | 80.6% | 88.6% | 63.4% | 42.4% | 91.4% | 68%
Cc1cc(O)c(C(=O)O)c(C)c1-c1ccc2ccccc2c1 [DC20, 6-hydroxy-2,4-dimethyl-3-(naphthalen-2-yl)benzoic acid] | 82.1% | 11.9% | 61.1% | 6.1% | 63.1% | 4.6% | 40.5% | 9.7%
CS(=O)(=O)c1ccc(/C=C/c2ccc(O)c(C(=O)O)c2)cc1 [DC13, (E)-2-hydroxy-5-(4-(methylsulfonyl)styryl)benzoic acid] | 94.1% | 81.6% | 105% | 103% | 74.3% | 59.7% | 88.3% | 76.6%
O=C(O)c1cc(-c2ccc3ccccc3c2)ccc1O [DC11, 2-hydroxy-5-(naphthalen-2-yl)benzoic acid] | 28.4% | 10.2% | 62.6% | 22.7% | 36.1% | 11.8% | 23.7% | 8.8%
Nc1ccc(/C=C/c2ccccc2)cc1C(=O)O [DC12, (E)-2-amino-5-styrylbenzoic acid] | 107% | 101% | 104% | 117% | 116% | 95.6% | 116% | 96.5%
CC1(C)c2ccccc2-c2ccc(/C=C/c3ccc(O)c(C(=O)O)c3)cc21 [DC21, (E)-5-(2-(9,9-dimethyl-9H-fluoren-2-yl)vinyl)-2-hydroxybenzoic acid] | 4.9% | 2.8% | 5% | 3.8% | 4.2% | 3.3% | 5.7% | 4.2%
O=C(O)c1cc(/C=C/c2ccc(F)cc2)ccc1O [DC07, (E)-5-(4-fluorostyryl)-2-hydroxybenzoic acid] | 81.6% | 16.8% | 50.4% | 11.7% | 23.8% | 7.8% | 22.1% | 6.9%
O=C(O)c1cc(/C=C/c2ccccc2-c2ccccc2)ccc1O [DC19, (E)-5-(2-([1,1′-biphenyl]-2-yl)vinyl)-2-hydroxybenzoic acid] | 58.7% | 3.3% | 64.6% | 5% | 47.8% | 3.7% | 51% | 4.3%
O=C(O)c1cc(-c2ccc(-c3ccccc3)cc2)ccc1O [DC17, 4-hydroxy-[1,1′:4′,1″-terphenyl]-3-carboxylic acid] | 98.4% | 28.7% | 66.2% | 20.2% | 56.6% | 4.6% | 51.7% | 17%
CSc1ccc(/C=C/c2ccc(O)c(C(=O)O)c2)cc1 [DC08, (E)-2-hydroxy-5-(4-(methylthio)styryl)benzoic acid] | 28.8% | 9.3% | 51.1% | 8.4% | 25.9% | 3.7% | 21.1% | 6.6%
Oc1ccc(/C=C/c2ccccc2)cc1-c1nnn[nH]1 [DC15, (E)-4-styryl-2-(1H-tetrazol-5-yl)phenol] | 55.1% | 9.7% | 104% | 50.4% | 53.3% | 46.4% | 75.8% | 32.6%
